Converted amounts (≈) assume the structure as drawn.
Assays:
N. gonorrhoeae = assay: MIC by CLSI agar dilution, Example 1 Method 2; assay type: cell-based, Neisseria gonorrhoeae; conditions: n = 95
Experimental: Antimicrobial activity was determined in a second study by […] using the CLSI recommended procedure in serial two-fold dilutions and the minimum inhibitory concentration (MIC) was determined as the lowest concentration of the compound that inhibited visible growth.
MICs were determined according to CLSI agar dilution guidelines.

C. koseri = assay: Phase IIa baseline uropathogen susceptibility testing (CLSI broth microdilution); assay type: cell-based, Citrobacter koseri; conditions: Citrobacter koseri; Participant 1; read-out: GEP MIC
Experimental: This phase IIa single center study evaluated the safety, tolerability, pharmacokinetics, and efficacy of oral gepotidacin 1500 mg BID for 5 days in female subjects with acute cystitis. Clean catch mid-stream urine specimens were obtained for quantitative culture by standard methods. Urine samples were taken from all participants pre-treatment (baseline) and at all post-baseline visits. All urine samples were sent to a central laboratory (PPD Global Clinical Laboratories, Highland Heights, Ky., USA) for Gram stain, quantitative culture, pathogen identification and susceptibility testing. See FIG. 1 for participant disposition and study outline.
Susceptibility testing by CLSI broth microdilution and gradient diffusion (fosfomycin only) was conducted (CLSI, 2015, Methods for dilution antimicrobial susceptibility tests for bacteria that grow aerobically; approved standard-tenth edition; and CLSI, 2018. Performance Standards for Antimicrobial Susceptibility Testing; Twenty-seventh Informational Supplement M100-S28). Inclusion in the microbiological intent-to-treat population (micro-ITT), required growth of a qualifying baseline uropathogen (≥10^5 CFU/mL). See FIG. 2 for the baseline algorithm.

[1] = tested on: S. lugdenensis, S. agalactiae, Streptococcus group G and Streptococcus group F; assay: MIC by CLSI broth microdilution, Example 5 second study; assay type: cell-based; conditions: at least one strain of every organism listed
Excerpt: A second study tested gepotidacin by CLSI broth microdilution against bacterial isolates collected from patients with acute bacterial skin and soft tissue infections between 2013-2014.
Amoxicillin/clavulanic acid, linezolid, fusidic acid, ceftriaxone, ceftaroline, vancomycin, penicillin, quinupristin/dalfopristin, erythromycin, clindamycin, meropenem, tetracycline, chloramphenicol, flucloxacillin, telavancin, daptomycin, trimethoprim/sulfamethoxazole, gentamicin, levofloxacin, tigecycline and cefuroxime were included as comparators. MICs were determined by broth microdilution according to CLSI methods.
In addition, MICs were determined by broth microdilution according CLSI methods and all the comparators from the list above were evaluated against gram-positive aerobe organisms selected from S. lugdenensis, S. agalactiae, Streptococcus group G and Streptococcus group F.

[2] = tested on: Proteus hauseri and Proteus peneri; assay: MIC by CLSI agar dilution, Example 1 Method 2; assay type: cell-based; conditions: at least one strain of every organism listed
Experimental: Antimicrobial activity was determined in a second study by […] using the CLSI recommended procedure in serial two-fold dilutions and the minimum inhibitory concentration (MIC) was determined as the lowest concentration of the compound that inhibited visible growth. Amikacin, ceftazidime, colistin, fosfomycin, levofloxacin, meropenem, nitrofurantoin and trimethoprim-sulfamethoxazole were included as comparators. MICs for and comparators were determined by agar dilution according CLSI methods. In addition, gepotidacin and all of the aforementioned comparators identified in this method were evaluated against gram-negative aerobic organisms selected from Proteus hauseri and Proteus […]. Gepotidacin was tested in at least one exemplified salt.

E. coli = assay: Neutropenic mouse thigh infection model PK/PD; assay type: in vivo
Experimental: PK and PD studies using gepotidacin were conducted in murine (male CD-1 mice) thigh and kidney infections. The administered doses ranged from 1 to 200 mg/kg SC every 6 hours starting 1h post infection. Infected tissues were evaluated for bacterial burden at 24 h post infection (baseline controls at 1 h post infection).
Efficacy was determined against E. coli ALL, 997577, ATCC25922, IR5 and NCTC13441 (MICs of 1 to 4 μg/mL) in thigh-infected neutropenic (I−) mice and against E. coli ALL in kidney-infected immunocompetent (I+) and I− mice. The PopPK model was used to determine GEP exposures associated with efficacy. PK-PD analyses were conducted using Phoenix WinNonLin 6.3 (Pharsight). The change in login colony forming units (CFU) from baseline were correlated with free drug (f) AUC:MIC using an inhibitory model from the Phoenix library, and model parameter values for each isolate were used to calculate the plasma fAUC:MIC associated with stasis, 1- or 2-login reductions in CFU.
PD studies were conducted using thigh and/or kidney infection models in neutropenic or competent mice (N=5/group). Mice were infected with a bacterial suspension in log phase: 100 μL in the left thigh muscle or 50 μL in each of both kidneys (100 μl total). Final inocula across all isolates were 6.0 to 7.0 login CFU/mouse. Dose-ranging studies were conducted with 5 isolates (see Table 1). Starting 1 hr after infection, GEP was given SC (0.2 mL/mouse) at discrete doses of 1-200 mg/kg every 6 hours (q6) for a 24-hour period (4 doses in total). Mice were euthanized 24 hr after start of therapy (6 hr after the last dose), and infected thighs or kidneys were processed to determine viable bacterial counts (CFU). Baseline CFU were obtained from untreated mice at 1 hr post infection and growth control CFU from saline-treated mice at 24 hr.
NCA analyses were conducted with the simulated data.
PK-PD analysis was conducted using Phoenix WinNonLin 6.3 (Pharsight): • Log10 colony forming units (CFU) from each group were correlated with PK-PD parameters using several inhibitory models from the Phoenix library. • Model parameter values for each isolate were used to calculate the PK-PD parameter value associated with stasis, 1-log or 2-log reductions from baseline 1 h controls.

[3] = 5 E. coli isolates, listed as Gepotidacin

SMILES: O=c1ccc2ncc(=O)n3c2n1C[C@H]3CN1CCC(NCc2cc3c(cn2)OCCC3)CC1 [gepotidacin, (2R)-2-({4-[(3,4-dihydro-2H-pyrano[2,3-c]pyridin-6-ylmethyl)amino]-1-piperidinyl}methyl)-1,2-dihydro-3H,8H-2a,5,8a-triazaacenaphthylene-3,8-dione]
- MIC50 (N. gonorrhoeae; Neisseria gonorrhoeae): 0.25 µg/mL (≈ 0.557 µM)
- MIC90 (N. gonorrhoeae; Neisseria gonorrhoeae): 1 µg/mL (≈ 2.23 µM)
- Number of Isolates at Gepotidacin MIC 0.5 mg/L (N. gonorrhoeae): 6
- Number of Isolates at Gepotidacin MIC 1 mg/L (N. gonorrhoeae): 6
- Number of Isolates at Gepotidacin MIC 2 mg/L (N. gonorrhoeae): 4
- Number of Isolates at Gepotidacin MIC ≤0.25 mg/L (N. gonorrhoeae): 79
- MIC (C. koseri): 0.5 µg/mL (≈ 1.11 µM)
- MIC [1]: ≤ 2 µg/mL
- MIC [2]: ≤ 8 µg/mL
- Median daily plasma fAUC/MIC for 1-log Drop (E. coli; 5 E. coli isolates): 16
- Median daily plasma fAUC/MIC for 2-log Drop (E. coli; 5 E. coli isolates): 25
- Median daily plasma fAUC/MIC for stasis (E. coli; 5 E. coli isolates): 11
- range of plasma fAUC:MIC ratios for 1-log10 reduction in CFU (E. coli; 5 E. coli isolates): 4-25
- range of plasma fAUC:MIC ratios for 2-log10 reduction in CFU (E. coli; 5 E. coli isolates): 7-40
- range of plasma fAUC:MIC ratios for stasis (E. coli; 5 E. coli isolates): 3-17
- Median daily plasma fAUC/MIC for 1-log Drop (E. coli; [3]): 16.0
- Median daily plasma fAUC/MIC for 2-log Drop (E. coli; [3]): 25.4
- Median daily plasma fAUC/MIC for stasis (E. coli; [3]): 10.6
- Daily fAUC/MIC for 1-log Drop, Mean ± SD (E. coli; 5 strains): 14.6 ± 9.0
- Daily fAUC/MIC for 2-log Drop, Mean ± SD (E. coli; 5 strains): 22.9 ± 12.8
- Daily fAUC/MIC for Stasis, Mean ± SD (E. coli; 5 strains): 9.9 ± 6.8
- Daily fAUC/MIC for 1-log Drop (E. coli; Strain 997577): 16.0
- Daily fAUC/MIC for 2-log Drop (E. coli; Strain 997577): 25.4
- Daily fAUC/MIC for Stasis (E. coli; Strain 997577): 10.6
- Daily fAUC/MIC for 1-log Drop (E. coli; Strain ALL, Neutropenic Thigh): 6.5
- Daily fAUC/MIC for 2-log Drop (E. coli; Strain ALL, Neutropenic Thigh): 13.8
- Daily fAUC/MIC for Stasis (E. coli; Strain ALL, Neutropenic Thigh): 3.0
- Daily fAUC/MIC for 1-log Drop (E. coli; Strain ATCC25922): 21.5
- Daily fAUC/MIC for 2-log Drop (E. coli; Strain ATCC25922): 27.6
- Daily fAUC/MIC for Stasis (E. coli; Strain ATCC25922): 16.8
- Daily fAUC/MIC for 1-log Drop (E. coli; Strain IR5): 4.3
- Daily fAUC/MIC for 2-log Drop (E. coli; Strain IR5): 7.2
- Daily fAUC/MIC for Stasis (E. coli; Strain IR5): 2.8
- Daily fAUC/MIC for 1-log Drop (E. coli; Strain NCTC13441): 24.9
- Daily fAUC/MIC for 2-log Drop (E. coli; Strain NCTC13441): 40.3
- Daily fAUC/MIC for Stasis (E. coli; Strain NCTC13441): 16.2
- Median plasma fAUC:MIC targets ranged (E. coli; stasis to 2-log10 reduction): 11 to 25

Reference: patent US20220184071A1, “GEPOTIDACIN FOR USE IN THE TREATMENT OF BACTERIAL URINARY TRACT INFECTIONS” (GlaxoSmithKline Intellectual Property Development Limited, priority 2019, published 2022)
